Source: PMC3714011 (Journal of medicinal chemistry, 2013)
Each block holds one molecule with its values, some of them ahead of it.

Experiments:
HsMetAP1 [1] = target: T1, HsMetAP1 (Homo sapiens, UniProt P53582); experiment: ProIP-coupled MetAP activity assay, HsMetAP1 with Co; assay type: biochemical
HDFa = experiment: [3H]-thymidine incorporation assay, HDFa; assay type: cell-based; conditions: Homo sapiens, read-out: Inhibition of Cell Proliferation (EC50, μM) HDFa
[2] = system: iMet processing of 14-3-3γ in HUVEC; conditions: for signal of unprocessed 14-3-3γ in the presence of cycloheximide: HUVEC treated with cycloheximide prior to MetAP inhibitor
HsMetAP2 = HsMetAP2 (Homo sapiens, UniProt P50579); experiment: ProIP-coupled MetAP activity assay, HsMetAP2 with Mn; assay type: biochemical
[3] = system: initiator methionine of BTF3L4 in HEK293T cells; experiment: Initiator methionine release assay, BTF3L4-3×Flag in HEK293T cells; assay type: cell-based, human; conditions: 10 μM 11j, 100 nM TNP-470
[4] = system: initiator methionine of TXNL1 in HEK293T cells; experiment: Initiator methionine release assay, TXNL1-3×Flag in HEK293T cells; assay type: cell-based, human; conditions: 10 μM
[5] = patients with advanced cancer; cited from earlier work
HsMetAP1 [6] = target: T1, HsMetAP1; experiment: LAO and HRP-coupled MetAP activity assay, HsMetAP1 with Zn; assay type: biochemical; conditions: concentrations up to 250 μM, Figure S3E
Escherichia coli = conditions: at concentrations up to 1 mM; ref 46b; cited from earlier work
[7] = system: iMet processing of 14-3-3γ in HDFa cells; conditions: 3–250 μM, 24 hours
[8] = system: Jurkat E6-1, HeLa, HEK293T, PC-3 and MCF-7; experiment: iMet processing of 14-3-3γ by immunoblot in five neoplastic cell lines; assay type: cell-based, human; conditions: all five neoplastic cell lines, 100 nM, 24 hours
[9] = Solubility observed at highest doses tested in the proliferation assay; conditions: 90 μM for 2, 40 μM for 3 and 40 μM for 4

Sequence of HsMetAP2 (P50579 whole entry): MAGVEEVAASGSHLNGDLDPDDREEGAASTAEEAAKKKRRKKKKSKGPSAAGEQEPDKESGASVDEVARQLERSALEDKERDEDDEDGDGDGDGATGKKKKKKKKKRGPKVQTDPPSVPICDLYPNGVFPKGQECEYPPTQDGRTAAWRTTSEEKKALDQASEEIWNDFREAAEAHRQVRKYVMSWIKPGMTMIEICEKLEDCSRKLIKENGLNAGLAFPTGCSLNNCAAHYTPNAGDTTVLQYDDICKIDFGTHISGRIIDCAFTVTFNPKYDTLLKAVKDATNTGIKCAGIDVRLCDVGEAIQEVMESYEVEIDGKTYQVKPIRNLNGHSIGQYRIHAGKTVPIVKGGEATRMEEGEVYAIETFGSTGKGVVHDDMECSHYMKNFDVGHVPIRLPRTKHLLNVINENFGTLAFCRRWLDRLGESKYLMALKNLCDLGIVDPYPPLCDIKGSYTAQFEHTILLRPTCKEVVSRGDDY

SMILES: c1ccc(-c2ccccn2)nc1 [2,2′-Bipyridine, 2,2′-bipyridine]
inhibition at 100 µM (HsMetAP1 [1]; read-out: inhibition of the activity of HsMetAP1 in the absence of Co(II)): ≤ 30%
EC50 (HDFa): 10 to 30 µM
ability to block the NME of 14-3-3γ in cells, lower than 11j ([2]; Figure 6B): at least 30 times

inhibitory activity against HsMetAP1 in the presence of Mn(II) / absence of Co(II) (HsMetAP1 [1]; 10 μM Mn(II)): completely lost the inhibitory activity
SMILES: Clc1nc(-c2ccccn2)nc2ccccc12 [7a, 4-Chloro-2-(pyridin-2-yl)quinazoline]

IC50 (HsMetAP1 [1]): 24 µM
inhibitory activity against HsMetAP1 in the presence of Mn(II) / absence of Co(II) (HsMetAP1 [1]; 10 μM Mn(II)): could completely inhibit HsMetAP1
SMILES: c1ccc(CCNc2nc(-c3ccccn3)nc3ccccc23)cc1 [10a, N-Phenethyl-2-(pyridin-2-yl)quinazolin-4-amine]

inhibitory activity against HsMetAP1 in the presence of Mn(II) / absence of Co(II) (HsMetAP1 [1]; 10 μM Mn(II)): completely lost the inhibitory activity
SMILES: c1ccc(NCCNc2nc(-c3ccccn3)nc3ccccc23)cc1 [10b, N^1-Phenyl-N^2-[2-(pyridin-2-yl)quinazolin-4-yl]ethane-1,2-diamine]

EC50 (HsMetAP2): > 300 µM
increase in potency against HsMetAP1 with Co(II) compared with 10a (HsMetAP1 [1]): 7.8 fold
EC50 (HsMetAP1 [1]; EC50 (μM) HsMetAP1 Co(II), Table 2, 10 μM Co(II), mean ± SD of at least three determinations): 0.12 ± 0.02 µM
EC50 (HsMetAP1 [1]; EC50 (μM) HsMetAP1 Mn(II), Table 2, 10 μM Mn(II), mean ± SD): 5.3 ± 0.7 µM
increase in potency against HsMetAP1 with Mn(II) compared with 10a (HsMetAP1 [1]; Mn(II)): 4.5 fold
SMILES: c1ccc(-c2nc(NCCc3c[nH]c4ccccc34)c3ccccc3n2)nc1 [10c, N-[2-(1H-indol-3-yl)ethyl]-2-(pyridin-2-yl)quinazolin-4-amine]

EC50 (HsMetAP1 [1]; EC50 (μM) HsMetAP1 Mn(II), Table 3, 10 μM Mn(II), mean ± SD): > 100 µM
SMILES: O=C(O)COc1ccc(N2CCN(c3nc(-c4ccccn4)nc4ccccc34)CC2)cc1 [11e, 2-(4-{4-[2-(Pyridin-2-yl)quinazolin-4-yl]piperazin-1-yl}phenoxy)acetic acid]

SMILES: COc1ccc(N2CCN(c3nc(-c4ccccn4)nc4ccccc34)CC2)cc1 [11j, 4-[4-(4-Methoxyphenyl)piperazin-1-yl]-2-(pyridin-2-yl)quinazoline]
signal of unprocessed 14-3-3γ in the presence of cycloheximide [2]: none of the MetAP inhibitors could generate a detectable signal
level of unprocessed 14-3-3γ over time ([2]; HUVEC, 10 μM, 1–7 hours): increased in a time-dependent manner
iMet retention of BTF3L4-3×Flag [3]: no appreciable increase
increase of the release of [35S]-Met from TXNL1-3×Flag, more than the vehicle [4]: 40 ± 17%

SMILES: CO[C@@H](C(=O)N[C@H]1CC[C@@H](OC(=O)C2CCCCC2)CNC1=O)[C@H](O)[C@@H](O)[C@H](O)/C=C/C(C)(C)C [LAF-389]
reason for termination of the clinical study [5]: cardiovascular toxicity

SMILES: CO[C@@H]1[C@H](OC(=O)NC(=O)CCl)CC[C@]2(CO2)[C@H]1[C@@]1(C)O[C@@H]1CC=C(C)C [TNP-470]
signal of unprocessed 14-3-3γ in the presence of cycloheximide [2]: none of the MetAP inhibitors could generate a detectable signal
iMet retention of BTF3L4-3×Flag [3]: no appreciable increase

inhibition of HsMetAP1 in the absence of Co(II) (HsMetAP1 [6]): failed to inhibit
SMILES: c1ccc2[nH]c(-c3cscn3)nc2c1 [Thiabendazole, 4-(1H-1,3-benzodiazol-2-yl)-1,3-thiazole]
activity against the growth of Escherichia coli (Escherichia coli): inactive
effect on the NME of 14-3-3γ ([2]; HUVEC, 3–250 μM, 24 hours): did not affect
effect on the NME of 14-3-3γ [7]: did not affect

SMILES: CCCCCCCCCCCCCC(=O)O[C@H]1CC[C@H](NC(=O)[C@H](OC)[C@H](O)[C@@H](O)[C@H](O)/C=C/C(C)C)C(=O)NC1 [bengamide A]
signal of unprocessed 14-3-3γ in the presence of cycloheximide [2]: none of the MetAP inhibitors could generate a detectable signal
increase in ratio of unprocessed 14-3-3γ versus total 14-3-3γ ([2]; HUVEC, 24-hour treatment, 100 nM, Figure 2A): 8 fold
concentration of maximal response of accumulation of unprocessed 14-3-3γ ([2]; HUVEC, data not shown): around 10 nM
increase in ratio of unprocessed versus total 14-3-3γ [8]: no more than 2.6 fold

SMILES: Cc1nc(-c2ccccn2)nc(NCCc2ccccc2)c1Cl [compound 2, 5-chloro-6-methyl-N-(2-phenylethyl)-2-pyridin-2-ylpyrimidine-4-amine]
increase in ratio when TNP-470 was supplemented ([2]; HUVEC treated with 30 μM compound 2 plus TNP-470): 3.5 fold

SMILES: Cc1nc(-c2ccc(Cl)cn2)nc(NC[C@@H](NCCCCc2ccccc2)c2ccccc2)c1Cl [compound 3]
cytotoxicity ([2]; 10 μM, most cells floating after 24 hours): severe cytotoxicity
solubility at highest doses tested [9]: No solubility problems

SMILES: Cc1nc(-c2ccccn2)nc(NCCNc2ccc(C(F)(F)F)cn2)c1Cl [compound 4]
solubility at highest doses tested [9]: No solubility problems

increase in potency against HsMetAP1 with Co(II) compared with 10a (HsMetAP1 [1]): 19 fold
SMILES: c1ccc(-c2nc(N3CCOCC3)c3ccccc3n2)nc1 [compound 17]
